Assay results as given in US8614238B2, “Cyclopentanecarboxamide derivatives, medicaments containing such compounds and their use” (Boehringer Ingelheim International GmbH, priority 2009, dated 2013).

What was measured:
[1] = target: T1, Fatty Acid Synthase (FAS) (Homo sapiens, UniProt P49327); test: Human FAS Enzyme Assay; assay type: biochemical; conditions: FAS enzyme prepared from HeLa cells; NADPH consumption; read-out: IC50 (potency range)
T1 construct: The FAS enzyme is prepared from HeLa cells; endogenous in cells; host or cells: HeLa cells
T1 sequence (P49327 whole entry): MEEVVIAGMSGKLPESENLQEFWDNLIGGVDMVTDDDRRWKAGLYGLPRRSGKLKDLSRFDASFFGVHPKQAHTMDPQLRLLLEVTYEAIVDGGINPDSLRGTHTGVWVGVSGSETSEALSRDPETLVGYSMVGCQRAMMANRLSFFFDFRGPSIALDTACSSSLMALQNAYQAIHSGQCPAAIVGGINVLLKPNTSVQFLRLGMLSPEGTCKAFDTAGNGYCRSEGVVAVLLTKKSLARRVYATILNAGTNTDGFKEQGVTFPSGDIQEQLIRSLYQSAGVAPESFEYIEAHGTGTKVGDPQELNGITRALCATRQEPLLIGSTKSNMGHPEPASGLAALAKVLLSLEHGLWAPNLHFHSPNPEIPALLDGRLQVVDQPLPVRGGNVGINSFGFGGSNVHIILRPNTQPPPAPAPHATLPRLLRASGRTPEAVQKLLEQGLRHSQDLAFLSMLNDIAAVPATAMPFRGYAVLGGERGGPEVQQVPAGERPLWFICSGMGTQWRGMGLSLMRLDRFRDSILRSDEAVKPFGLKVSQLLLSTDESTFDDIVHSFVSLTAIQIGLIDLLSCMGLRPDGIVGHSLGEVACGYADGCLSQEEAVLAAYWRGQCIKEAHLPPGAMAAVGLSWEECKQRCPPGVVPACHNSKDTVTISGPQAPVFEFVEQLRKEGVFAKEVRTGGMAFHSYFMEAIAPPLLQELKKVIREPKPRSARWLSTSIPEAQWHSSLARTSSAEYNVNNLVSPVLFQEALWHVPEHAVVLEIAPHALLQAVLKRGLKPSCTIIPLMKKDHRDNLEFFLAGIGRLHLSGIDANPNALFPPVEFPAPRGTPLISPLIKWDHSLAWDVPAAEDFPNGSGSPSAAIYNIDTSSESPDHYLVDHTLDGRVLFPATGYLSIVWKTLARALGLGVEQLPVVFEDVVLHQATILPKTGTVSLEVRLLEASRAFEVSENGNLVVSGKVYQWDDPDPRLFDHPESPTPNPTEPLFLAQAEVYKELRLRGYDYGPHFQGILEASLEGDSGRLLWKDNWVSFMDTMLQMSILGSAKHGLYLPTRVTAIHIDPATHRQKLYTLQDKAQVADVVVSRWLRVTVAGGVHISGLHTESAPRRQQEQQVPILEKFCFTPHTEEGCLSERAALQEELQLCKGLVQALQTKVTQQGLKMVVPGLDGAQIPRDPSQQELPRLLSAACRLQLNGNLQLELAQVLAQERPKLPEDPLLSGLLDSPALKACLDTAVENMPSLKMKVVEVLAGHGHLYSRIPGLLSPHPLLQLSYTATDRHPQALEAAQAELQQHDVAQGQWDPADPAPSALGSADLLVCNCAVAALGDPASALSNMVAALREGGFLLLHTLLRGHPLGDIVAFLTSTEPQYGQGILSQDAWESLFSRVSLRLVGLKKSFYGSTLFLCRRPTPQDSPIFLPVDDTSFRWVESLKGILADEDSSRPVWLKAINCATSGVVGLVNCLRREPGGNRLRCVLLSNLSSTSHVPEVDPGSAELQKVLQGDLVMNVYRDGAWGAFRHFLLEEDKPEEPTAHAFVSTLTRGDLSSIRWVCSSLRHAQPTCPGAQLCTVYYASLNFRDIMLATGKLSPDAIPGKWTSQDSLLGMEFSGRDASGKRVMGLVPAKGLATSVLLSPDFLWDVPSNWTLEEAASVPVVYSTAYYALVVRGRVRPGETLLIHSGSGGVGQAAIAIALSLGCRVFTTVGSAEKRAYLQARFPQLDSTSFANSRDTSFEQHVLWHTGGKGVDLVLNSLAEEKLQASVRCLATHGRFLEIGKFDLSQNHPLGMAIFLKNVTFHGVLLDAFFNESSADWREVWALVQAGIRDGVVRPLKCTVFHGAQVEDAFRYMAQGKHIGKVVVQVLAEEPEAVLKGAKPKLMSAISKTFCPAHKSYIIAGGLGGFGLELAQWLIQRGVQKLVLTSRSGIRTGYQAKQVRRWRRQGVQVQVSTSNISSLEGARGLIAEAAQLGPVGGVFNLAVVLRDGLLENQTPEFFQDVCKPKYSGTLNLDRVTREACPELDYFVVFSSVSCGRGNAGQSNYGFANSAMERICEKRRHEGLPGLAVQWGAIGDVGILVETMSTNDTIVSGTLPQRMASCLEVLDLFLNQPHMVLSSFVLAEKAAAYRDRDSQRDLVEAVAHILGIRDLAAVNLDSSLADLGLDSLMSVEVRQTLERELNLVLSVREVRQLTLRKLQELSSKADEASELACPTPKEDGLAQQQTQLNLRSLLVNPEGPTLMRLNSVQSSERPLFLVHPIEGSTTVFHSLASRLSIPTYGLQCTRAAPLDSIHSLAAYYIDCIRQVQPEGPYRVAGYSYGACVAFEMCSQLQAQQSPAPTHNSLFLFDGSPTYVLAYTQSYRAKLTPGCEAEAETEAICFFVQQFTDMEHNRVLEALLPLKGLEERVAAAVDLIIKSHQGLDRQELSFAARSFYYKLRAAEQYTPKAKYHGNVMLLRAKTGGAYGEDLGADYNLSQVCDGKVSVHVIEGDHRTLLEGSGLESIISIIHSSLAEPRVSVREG
Text: Fatty acid synthase is an enzyme complex that harbours seven enzymatic activities catalysing the reductive synthesis of long chain fatty acids from acetyl CoA and malonyl CoA to palmitate. When acetyl CoA and malonyl CoA are forming palmitate NADPH is consumed forming NADP. Since NADPH is fluorescent but not NADP the reaction can be measured by analysing the decrease in fluorescence.
Acetyl coenzyme A (cat.-no. A-2181) and malonyl coenzyme A (cat.-no. M-4263) are purchased from Sigma. NADPH (cat.-no. 30316) is purchased from Serva. The FAS enzyme is prepared from HeLa cells. All other material is of highest grade commercially available.
In the plates, 10 μl test compound in distilled water/DMSO (final concentration 0.1% DMSO) are mixed with 35 μl of a mixture of NADPH and acetyl CoA in phosphate buffer (f.c. 326 μM and 60 μM, respectively), and 45 μl FAS enzyme diluted in enzyme buffer. The plates are incubated for 60 minutes at 37° C. The reaction is then started by the addition of 10 μl malonyl CoA dissolved in water (200 μM). The decrease of the optical density in the wells is determined at 37° C. at a wavelength of 340 nm over 10 minutes. From these kinetic data, the slope (i.e. Vmax) is calculated and used for the calculation.
20 mM KH2PO4/K2HPO4, 1 mM EDTA, 1 mM DTT, 5% glycerol, pH 7.4
Each assay 96 well microtiter plate contains wells with vehicle controls instead of compound (1% DMSO in water) as reference for non-inhibited enzyme activity and wells without malonyl CoA as controls for non-specific NADPH degradation. The analysis of the data is performed by the calculation of the OD decrease in the presence of the test compound compared to the OD decrease of the test control wells after subtraction of the non-specific background without the malonyl CoA substrate (slope(sample)-slope(sample w/o malonyl CoA). An inhibitor of the FAS enzyme will give values between Control values (complete reaction without substance) and complete inhibition. Reported values will include: IC50; Top(Control: nmol NADPH oxidized/min/mg); Bottom (MaxInh: nmol NADPH oxidized/min/mg); RATIO (log(IC50 substance/IC50 control inhibitor)).

[2] = tested on: N-42 cells; test: 14C-acetate incorporation in N-42 cells; assay type: cell-based
Protocol: ^14C-Acetat Incorporation in N-42 Cells
30000 cells (N-42), in 24 well plates are incubated with the compound dissolved in 500 μL Krebs-Ringer-buffer for 60 min at 37° C., then incubated with 5 μL 1:10 14C-Acetate dilution (1 000 000 dpm) for 4 hours at 37° C. incubation, then washed with 500 μl PBS. 500 μL chloroform/methanol mix 1:1 and 175 μL sodium hydroxide solution was given in each well. The upper fraction is taken away and the lower fraction is vaporized. 50 μL chloroform/methanol mix 1:1 is again given in every well. 10 μL each are taken and given to scintillation vials with 4 mL Ultima Gold. Each vial is measured for 1 minute in a β-Counter.
Cerulenin, a literature known FAS inhibitor is used to validate the assay.

[3] = tested on: sebaceous glands; test: In vivo activity on sebaceous glands in rats; design: species or system Wistar rats
Protocol: In vivo activity of the FAS inhibitors on sebaceous glands is determined as exemplified with the following experiment: Female Wistar rats [Crl:Wi(Han); Charles River, Germany] weighing 200-240 g are conventionally housed in Makrolon type cages at a constant temperature of 22±3° C., on a 12 h light/dark cycle. Food and water are provided ad libitum. The animals (n=7 per group) are orally treated once daily with 3, 10 and 30 mg/kg of compound 1.2 in a suspension with 0.5% Natrosol for seven days. All experimental procedures are conducted according to the German Animal Protection Law. Beginning with day 4 of treatment, at the highest dose effects on skin and coat of the animals could be detected. […] With longer treatment alopecia and cutaneous lesions also developed at the skin of the back. At day seven the animals are euthanized and representative tissue samples of the eye lid, muzzle and back skin are collected into 4% formaldehyde solution for microscopic examination. After trimming, the fixed tissues are processed, embedded in paraffin, sectioned at a thickness of approximately 4 μm and stained with hematoxylin-eosin (H&E). […] This lesion is sometimes accompanied by a slight inflammatory reaction.

[4] = female Wistar rats, highest dose (30 mg/kg orally once daily), beginning with day 4 of treatment

Row | Compound | IC50 [1] [nM] | further results
1 | CN(C)CCCCCC(=O)N[C@H]1CC[C@@H](C(=O)N(C)c2ccc(-c3nc4ccccc4o3)cc2)C1 [Example 1.4, (1R,3S)-3-(6-Dimethylamino-hexanoylamino)-cyclopentanecarboxylic acid N-(4-benzooxazol-2-yl-phenyl)-N-methyl-amide] | 500 to 3000 | –
2 | CN(C(=O)[C@@H]1CC[C@H](NC(=O)C(F)F)C1)c1ccc(-c2nc3ccccc3o2)cc1 [Example 1.8, (1R,3S)-3-(2,2-Difluoro-acetylamino)-cyclopentanecarboxylic acid N-(4-benzooxazol-2-yl-phenyl)-N-methyl-amide] | ≤ 500 | –
3 | CN(C)C(=O)N[C@H]1CC[C@@H](C(=O)N(C)c2ccc(-c3nc4ccccc4o3)cc2)C1 [Example 1.7, (1R,3S)-3-(3,3-Dimethyl-ureideo)-cyclopentanecarboxylic acid N-(4-benzooxazol-2-yl-phenyl)-N-methyl-amide] | ≤ 500 | –
4 | C/C=C/C/C=C/CCC(=O)[C@H]1O[C@H]1C(N)=O [Cerulenin, reference compound] | – | % control 14C acetate incorporation ([2]; compound at 100 μM): 73.3 % control
5 | COCC(=O)N[C@H]1CC[C@@H](C(=O)N(C)c2ccc(-c3nc4ccccc4o3)cc2)C1 [Example 1.5, (1R,3S)-3-(2-Methoxy-acetylamino)-cyclopentanecarboxylic acid N-(4-benzooxazol-2-yl-phenyl)-N-methyl-amide] | 500 to 3000 | –
6 | CCC(=O)N[C@H]1CC[C@@H](C(=O)N(C)c2ccc(-c3nc4ccccc4o3)cc2)C1 [Example 1.2, (1R,3S)-3-Propionylamino-cyclopentanecarboxylic acid N-(4-benzooxazol-2-yl-phenyl)-N-methyl-amide] | ≤ 500 | % control 14C acetate incorporation ([2]; compound at 10 μM): 64.1 % control; microscopic examination of skin (eye lid, muzzle, back skin) ([3]; female Wistar rats, 3, 10 and 30 mg/kg orally once daily for seven days, all dose groups): treatment-related diffuse atrophy of sebaceous glands of the skin; effects on skin and coat of the animals [3, 4]: progressive cranial alopecia; skin of the mouth and eye lid [3, 4]: reddened and swollen
7 | CCCC(=O)N[C@H]1CC[C@@H](C(=O)N(C)c2ccc(-c3nc4ccccc4o3)cc2)C1 [Example 1.6, (1R,3S)-3-Butyrylamino-cyclopentanecarboxylic acid N-(4-benzooxazol-2-yl-phenyl)-N-methyl-amide] | ≤ 500 | % control 14C acetate incorporation ([2]; compound at 10 μM): 81.0 % control
8 | CCNC(=O)N[C@H]1CC[C@@H](C(=O)N(C)c2ccc(-c3nc4ccccc4o3)cc2)C1 [Example 1.1, (1R,3S)-3-(3-Ethyl-ureido)-cyclopentanecarboxylic acid N-(4-benzooxazol-2-yl-phenyl)-N-methyl-amide] | 500 to 3000 | –
9 | CC(=O)N[C@H]1CC[C@@H](C(=O)N(C)c2ccc(-c3nc4ccccc4o3)cc2)C1 [Example 1.3, (1R,3S)-3-Acetylamino-cyclopentanecarboxylic acid N-(4-benzooxazol-2-yl-phenyl)-N-methyl-amide] | ≤ 500 | % control 14C acetate incorporation ([2]; compound at 10 μM): 81.7 % control

More lines, main results first:

Row | IC50 [1] [nM] | Compound | further results
10 | 500 to 3000 | CN(C)CCCCCC(=O)N[C@H]1CC[C@@H](C(=O)N(C)c2ccc(-c3ccccc3)cc2)C1 [Example 3.5, (1R,3S)-3-(6-Dimethylamino-hexanoylamino)-cyclopentanecarboxylic acid N-biphenyl-4-yl-N-methyl-amide] | –
11 | ≤ 500 | CCC(=O)N[C@H]1CC[C@@H](C(=O)N(C)c2ccc(-c3nc4ccccc4n3C)cc2)C1 [Example 5.1, (1R,3S)-3-Propionylamino-cyclopentanecarboxylic acid N-methyl-N-[4-(1-methyl-1H-benzoimidazol-2-yl)-phenyl]-amide] | % control 14C acetate incorporation ([2]; compound at 10 μM): 85.7 % control
12 | ≤ 500 | CC(C)C(=O)N[C@H]1CC[C@@H](C(=O)N(C)c2ccc(-c3ccccc3)cc2)C1 [Example 3.2, (1R,3S)-3-Isobutyrylamino-cyclopentanecarboxylic acid N-biphenyl-4-yl-N-methyl-amide] | –
13 | 500 to 3000 | CC(=O)N[C@H]1CC[C@@H](C(=O)N(C)c2ccc(-c3nc4ccccc4[nH]3)cc2)C1 [Example 2.2, (1R,3S)-3-Acetylamino-cyclopentanecarboxylic acid N-[4′-(1H-benzoimidazol-2-yl)-phenyl]-N-methyl-amide] | –
14 | 500 to 3000 | CN(C)CCCCCC(=O)N[C@H]1CC[C@@H](C(=O)N(C)c2ccc(-c3nc4ccccc4[nH]3)cc2)C1 [Example 2.5, (1R,3S)-3-(6-Dimethylamino-hexanoylamino)-cyclopentanecarboxylic acid N-[4′-(1H-benzoimidazol-2 yl)-phenyl]-N-methyl-amide] | –
15 | ≤ 500 | CCC(=O)N[C@H]1CC[C@@H](C(=O)N(C)c2ccc(-c3nc4ccccc4[nH]3)cc2)C1 [Example 2.1, (1R,3S)-3-Propionylamino-cyclopentanecarboxylic acid N-[4′-(1H-benzoimidazol-2-yl)-phenyl]-N-methyl-amide] | % control 14C acetate incorporation ([2]; compound at 10 μM): 80.8 % control
16 | ≤ 500 | CCNC(=O)N[C@H]1CC[C@@H](C(=O)N(C)c2ccc(-c3nc4ccccc4[nH]3)cc2)C1 [Example 2.4, (1R,3S)-3-(3-Ethyl-ureido)-cyclopentanecarboxylic acid N-[4′-(1H-benzoimidazol-2-yl)-phenyl]-N-methyl-amide] | –
17 | 500 to 3000 | CN(C)CCCCCC(=O)N[C@H]1CC[C@@H](C(=O)N(C)c2ccc(-c3nc4ccccc4n3C)cc2)C1 [Example 4.2, (1R,3S)-3-(6-Dimethylamino-hexanoylamino)-cyclopentanecarboxylic acid N-methyl-N-[4-(1-methyl-1H-benzoimidazol-2-yl)-phenyl]-amide] | –
18 | 500 to 3000 | CCNC(=O)N[C@H]1CC[C@@H](C(=O)N(C)c2ccc(-c3nc4ccccc4n3C)cc2)C1 [Example 4.1, (1R,3S)-3-(3-Ethyl-ureido)-cyclopentanecarboxylic acid N-methyl-N-[4-(1-methyl-1H-benzoimidazol-2-yl)-phenyl]-amide] | –
19 | 500 to 3000 | CCC(=O)N[C@H]1CC[C@@H](C(=O)N(C)c2ccc(-c3cn4ccccc4n3)cc2)C1 [Example 5.2, (1R,3S)-3-Propionylamino-cyclopentanecarboxylic acid N-[4-(imidazo[1,2-a]pyridin-2-yl)-phenyl]-N-methyl-amide] | –
20 | 500 to 3000 | CC(C)C(=O)N[C@H]1CC[C@@H](C(=O)N(C)c2ccc(-c3nc4ccccc4[nH]3)cc2)C1 [Example 2.3, (1R,3S)-3-Isobutyrylamino-cyclopentanecarboxylic acid N-[4′-(1H-benzoimidazol-2-yl)-phenyl]-N-methyl-amide] | –
21 | 500 to 3000 | CCNC(=O)N[C@H]1CC[C@@H](C(=O)N(C)c2ccc(-c3ccccc3)cc2)C1 [Example 3.4, (1R,3S)-3-(3-Ethyl-ureido)-cyclopentanecarboxylic acid N-biphenyl-4-yl-N-methyl-amide] | –
22 | ≤ 500 | CC(=O)N[C@H]1CC[C@@H](C(=O)N(C)c2ccc(-c3ccccc3)cc2)C1 [Example 3.3, (1R,3S)-3-Acetylamino-cyclopentanecarboxylic acid N-biphenyl-4-yl-N-methyl-amide] | –
23 | ≤ 500 | CCC(=O)N[C@H]1CC[C@@H](C(=O)N(C)c2ccc(-c3ccccc3)cc2)C1 [Example 3.1, (1R,3S)-3-Propionylamino-cyclopentanecarboxylic acid N-biphenyl-4-yl-N-methyl-amide] | % control 14C acetate incorporation ([2]; compound at 10 μM): 76.8 % control
